Measurements from patent publication US20260166159A1, “KRAS G12D DEGRADATION AGENT, AND PREPARATION METHOD AND USE THEREFOR” (LEADINGTAC PHARMACEUTICAL (SHAOXING) CO., LTD., priority 2022, published 2026).

What was measured:
KRAS-G12D = biological target: T1, KRAS-G12D (Homo sapiens, UniProt P01116, G12D); assay: KRAS-G12D degradation assay (Western Blot), A-427 cells; assay type: cell-based; conditions: A427 cells, 24 h, class symbols; for Dmax: A-427
T1 construct: endogenous in cells; host or cells: A-427 (ATCC), AGS, AsPc-1, Panc 04.03
T1 sequence (P01116 1-188 isoform P01116-2 G12D): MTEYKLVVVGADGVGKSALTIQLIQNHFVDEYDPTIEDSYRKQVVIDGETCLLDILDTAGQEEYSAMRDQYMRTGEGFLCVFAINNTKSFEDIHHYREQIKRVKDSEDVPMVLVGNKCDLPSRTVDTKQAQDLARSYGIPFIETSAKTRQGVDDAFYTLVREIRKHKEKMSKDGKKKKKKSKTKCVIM
How it was run: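 Each KRAS G12D mutant line (A-427, AGS, AsPc-1, Panc 04.03) was seeded at 5×10^5 cells/well and treated 24 h at 37 °C with 0.03–3000 nM compound (final DMSO 0.25%). KRAS in lysates was measured by Western blot, normalized to β-actin and compared with controls, giving DC50 and Dmax from curve fits.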

[1] = test system: KRAS G12D mutant human lung cancer cell A427; assay: 3D cell proliferation inhibition assay, A427; assay type: cell-based; conditions: A-427, 168 h, A427, 7 days, CTG, class symbols
How it was run: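 IC50 values derive from nonlinear fits of log dose against percent inhibition of 7-day 3D proliferation. Readout: CTG luminescence. Plating density: 5×10^2 cells/well in low-adsorption plates. Dosing: 10000–0.026 nM final, 0.2% DMSO.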

Row | Compound | DC50 (KRAS-G12D) [nM] | Dmax (KRAS-G12D) [%] | IC50 [1] [nM]
1 | CCc1c(F)ccc2cc(O)cc(-c3ncc4c(N5CC6CCC(C5)N6)nc(OCC5(CN6CCN(CCCC7CCN(C(=O)c8ccc(Cl)c(N9CCC(=O)NC9=O)c8)CC7)CC6)CC5)nc4c3F)c12 [Example 22, 1-(5-(4-(3-(4-((1-(((4-(3,8-diazabicyclo[3.2.1]octan-3-yl)-7-(8-ethyl-7-fluoro-3-hydroxynaphthalen-1-yl)-8-fluoropyrido[4,3-d]pyrimidin-2-yl)oxy)methyl)cyclopropyl)methyl)piperazin-1-yl)propyl)piperidine-1-carbonyl)-2-chlorophenyl)dihydropyrimidine-2,4(1H,3H)-dione] | ≤ 50 | 50 to 80 | 50 to 100
2 | C#Cc1c(F)ccc2cc(O)cc(-c3ncc4c(N5CC6CCC(C5)N6)nc(OCC(C)(C)CN5CCN(CCCC6CCN(C(=O)c7ccc(Cl)c(N8CCC(=O)NC8=O)c7)CC6)CC5)nc4c3F)c12 [Example 23, 1-(5-(4-(3-(4-(3-((4-(3,8-diazabicyclo[3.2.1]octan-3-yl)-7-(8-ethynyl-7-fluoro-3-hydroxynaphthalen-1-yl)-8-fluoropyrido[4,3-d]pyrimidin-2-yl)oxy)-2,2-dimethylpropyl)piperazin-1-yl)propyl)piperidine-1-carbonyl)-2-chlorophenyl)dihydropyrimidine-2,4(1H,3H)-dione] | 1000 to 10000 | 30 to 50 | 100 to 500
3 | C#Cc1c(F)ccc2cc(O)cc(-c3ncc4c(N5CC6CCC(C5)N6)nc(OCC5(CN6CCN(CCCC7CCN(C(=O)c8ccc(Cl)c(N9CCC(=O)NC9=O)c8)CC7)CC6)CCC5)nc4c3F)c12 [Example 24, 1-(5-(4-(3-(4-((1-(((4-(3,8-diazabicyclo[3.2.1]octan-3-yl)-7-(8-ethynyl-7-fluoro-3-hydroxynaphthalen-1-yl)-8-fluoropyrido[4,3-d]pyrimidin-2-yl)oxy)methyl)cyclobutyl)methyl)piperazin-1-yl)propyl)piperidine-1-carbonyl)-2-chlorophenyl)dihydropyrimidine-2,4(1H,3H)-dione] | ≤ 50 | 80 to 100 | 100 to 500
4 | C#Cc1c(F)ccc2cc(O)cc(-c3ncc4c(N5CC6CCC(C5)N6)nc(OCC5(CN6CCN(CC7CCC8(CC7)CCN(C(=O)c7ccc(OC)c(N9CCC(=O)NC9=O)c7)CC8)CC6)CCC5)nc4c3F)c12 [Example 25, 1-(5-(9-((4-((1-(((4-(3,8-diazabicyclo[3.2.1]octan-3-yl)-7-(8-ethynyl-7-fluoro-3-hydroxynaphthalen-1-yl)-8-fluoropyrido[4,3-d]pyrimidin-2-yl)oxy)methyl)cyclobutyl)methyl)piperazin-1-yl)methyl)-3-azaspiro[5.5]undecane-3-carbonyl)-2-methoxyphenyl)dihydropyrimidine-2,4(1H,3H)-dione] | ≤ 50 | 50 to 80 | 100 to 500
5 | C#Cc1c(F)ccc2cc(O)cc(-c3ncc4c(N5CC6CCC(C5)N6)nc(OCC(C)(C)CN5CCN(CC6CCC7(CC6)CCN(C(=O)c6ccc(OC)c(N8CCC(=O)NC8=O)c6)CC7)CC5)nc4c3F)c12 [Example 26, 1-(5-(9-((4-(3-((4-(3,8-diazabicyclo[3.2.1]octan-3-yl)-7-(8-ethynyl-7-fluoro-3-hydroxynaphthalen-1-yl)-8-fluoropyrido[4,3-d]pyrimidin-2-yl)oxy)-2,2-dimethylpropyl)piperazin-1-yl)methyl)-3-azaspiro[5.5]undecane-3-carbonyl)-2-methoxyphenyl)dihydropyrimidine-2,4(1H,3H)-dione] | 1000 to 10000 | 30 to 50 | 50 to 100
6 | C#Cc1c(F)ccc2cc(O)cc(-c3ncc4c(N5CC6CCC(C5)N6)nc(OCC5(CN6CCN(CC7CCC8(CC7)CCN(C(=O)c7ccc(Br)c(N9CCC(=O)NC9=O)c7)CC8)CC6)CC5)nc4c3F)c12 [Example 29, 1-(5-(9-((4-((1-(((4-(3,8-diazabicyclo[3.2.1]octan-3-yl)-7-(8-ethynyl-7-fluoro-3-hydroxynaphthalen-1-yl)-8-fluoropyrido[4,3-d]pyrimidin-2-yl)oxy)methyl)cyclopropyl)methyl)piperazin-1-yl)methyl)-3-azaspiro[5.5]undecane-3-carbonyl)-2-bromophenyl)dihydropyrimidine-2,4(1H,3H)-dione] | ≤ 50 | 80 to 100 | ≤ 50
7 | CCc1c(F)ccc2cc(O)cc(-c3ncc4c(N5CC6CCC(C5)N6)nc(OCC5(CN6CCN(CC7CCC8(CC7)CCN(C(=O)c7ccc(Cl)c(N9CCC(=O)NC9=O)c7)CC8)CC6)CC5)nc4c3F)c12 [Example 30, 1-(5-(9-((4-((1-(((4-(3,8-diazabicyclo[3.2.1]octan-3-yl)-7-(8-ethyl-7-fluoro-3-hydroxynaphthalen-1-yl)-8-fluoropyrido[4,3-d]pyrimidin-2-yl)oxy)methyl)cyclopropyl)methyl)piperazin-1-yl)methyl)-3-azaspiro[5.5]undecane-3-carbonyl)-2-chlorophenyl)dihydropyrimidine-2,4(1H,3H)-dione] | ≤ 50 | 50 to 80 | ≤ 50
8 | C#Cc1c(F)ccc2cc(O)cc(-c3ncc4c(N5CC6CCC(C5)N6)nc(OCC5(CN6CCN(CCCCC7CCC8(CC7)CCN(C(=O)c7ccc(Cl)c(N9CCC(=O)NC9=O)c7)CC8)CC6)CC5)nc4c3F)c12 [Example 31, 1-(5-(9-(4-(4-((1-(((4-(3,8-diazabicyclo[3.2.1]octan-3-yl)-7-(8-ethynyl-7-fluoro-3-hydroxynaphthalen-1-yl)-8-fluoropyrido[4,3-d]pyrimidin-2-yl)oxy)methyl)cyclopropyl)methyl)piperazin-1-yl)butyl)-3-azaspiro[5.5]undecane-3-carbonyl)-2-chlorophenyl)dihydropyrimidine-2,4(1H,3H)-dione] | ≤ 50 | 80 to 100 | ≤ 50
9 | C#Cc1c(F)ccc2cc(O)cc(-c3ncc4c(N5CC6CCC(C5)N6)nc(OC[C@@H]5CCCN5CCC5CCC6(CC5)CCN(C(=O)c5ccc(Cl)c(N7CCC(=O)NC7=O)c5)CC6)nc4c3F)c12 [Example 32, 1-(5-(9-(2-((S)-2-(((4-(3,8-diazabicyclo[3.2.1]octan-3-yl)-7-(8-ethynyl-7-fluoro-3-hydroxynaphthalen-1-yl)-8-fluoropyrido[4,3-d]pyrimidin-2-yl)oxy)methyl)pyrrolidin-1-yl)ethyl)-3-azaspiro[5.5]undecane-3-carbonyl)-2-chlorophenyl)dihydropyrimidine-2,4(1H,3H)-dione] | 1000 to 10000 | < 30 | 1000 to 10000
10 | C#Cc1c(F)ccc2cc(O)cc(-c3ncc4c(N5CC6CCC(C5)N6)nc(OCC56CC(CN7CCN(CC8CCC9(CC8)CCN(C(=O)c8ccc(Cl)c(N%10CCC(=O)NC%10=O)c8)CC9)CC7)(C5)C6)nc4c3F)c12 [Example 33, 1-(5-(9-((4-((3-(((4-(3,8-diazabicyclo[3.2.1]octan-3-yl)-7-(8-ethynyl-7-fluoro-3-hydroxynaphthalen-1-yl)-8-fluoropyrido[4,3-d]pyrimidin-2-yl)oxy)methyl)bicyclo[1.1.1]pentan-1-yl)methyl)piperazin-1-yl)methyl)-3-azaspiro[5.5]undecane-3-carbonyl)-2-chlorophenyl)dihydropyrimidine-2,4(1H,3H)-dione] | ≤ 50 | 80 to 100 | 100 to 500
